Results as given in article PMC11246197 (Journal of medicinal chemistry, 2024).
Read-outs that look alike come from different tables or passages of the source.

Legend:
[1] = molecular target: recombinant human CatA (rhCatA) (Homo sapiens, UniProt P10619); assay: Hydrolysis of ProTides by recombinant human CatA; assay type: biochemical; conditions: 20 μM prodrug, 0.5 ng/μL rhCatA, 10 min, MES buffer pH 5.5, 37 °C, n = 3
[2] = molecular target: T1, recombinant human CES1 (rhCES1) (Homo sapiens, UniProt P23141); assay: Hydrolysis of ProTides by recombinant human CES1; assay type: biochemical; conditions: 20 μM prodrug, 40 ng/μL rhCES1, 20 min, Tris buffer pH 7.5, 37 °C, n = 3
T1 sequence (P23141 18-567): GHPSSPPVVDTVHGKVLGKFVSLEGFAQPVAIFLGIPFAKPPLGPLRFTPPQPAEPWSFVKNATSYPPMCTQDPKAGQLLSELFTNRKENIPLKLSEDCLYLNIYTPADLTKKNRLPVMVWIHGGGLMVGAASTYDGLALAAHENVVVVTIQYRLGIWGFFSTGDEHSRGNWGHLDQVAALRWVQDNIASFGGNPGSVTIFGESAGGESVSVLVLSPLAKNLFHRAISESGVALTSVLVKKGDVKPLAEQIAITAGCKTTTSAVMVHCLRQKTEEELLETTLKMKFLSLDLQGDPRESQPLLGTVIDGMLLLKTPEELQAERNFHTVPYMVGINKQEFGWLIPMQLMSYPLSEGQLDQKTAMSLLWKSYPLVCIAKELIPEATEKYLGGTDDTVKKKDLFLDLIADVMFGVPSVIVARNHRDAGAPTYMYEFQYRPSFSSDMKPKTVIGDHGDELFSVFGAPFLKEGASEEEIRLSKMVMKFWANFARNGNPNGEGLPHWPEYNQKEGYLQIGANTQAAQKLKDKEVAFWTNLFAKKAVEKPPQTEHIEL

[3] = cited from earlier work
[4] = cited from earlier work; remark: listed apart in the source
[5] = Ex vivo human plasma stability; conditions: 10 μM, 37 °C, 4 hours
[6] = Plasma PK after oral administration in Ces1c−/− mice; conditions: 54.4 μmole/kg
[7] = Plasma PK after IV administration; conditions: for AUC(0-inf) / AUC(0-t) / Cmax / Vd / half-life / concentration at 15 min: male, mouse, plasma, iv; for AUC(0-inf) / AUC(0-t) / Cmax / Vd / half-life: Ces1c−/− (JAX stock # 014096)
BEAS-2B cells = assay type: cell-based, human; conditions: BNPP (CES1 inhibitor) up to 20 μM co-incubated with 10 μM ProTide
[8] = 24 h, 10 μM
[9] = male, Ces1c−/− (Ces1c knockout), in vivo, iv
[10] = system: human bronchial epithelial cells; conditions: within 48 hours after drug treatment; cited from earlier work
[11] = Prodrug hydrolysis in human intestine S9 fractions; assay type: in vitro ADME; conditions: 15 min incubation
[12] = Prodrug hydrolysis in human liver S9 fractions; assay type: in vitro ADME; conditions: 15 min incubation
VeroE6 cells = conditions: read-out: 50% cytotoxic concentration (CC50); cited from earlier work
iPSC-AT2 = conditions: read-out: 50% cytotoxic concentration (CC50); cited from earlier work
lung virus titers = conditions: 2 days post infection, cited from earlier work
[13] = wild-type mice; cited from earlier work
[14] = cited from earlier work; remark: listed apart in the source
[15] = IV bolus, 54.4 μmole/kg, Ces1c−/− mice

Sequence of recombinant human CatA (rhCatA) (P10619 327-480): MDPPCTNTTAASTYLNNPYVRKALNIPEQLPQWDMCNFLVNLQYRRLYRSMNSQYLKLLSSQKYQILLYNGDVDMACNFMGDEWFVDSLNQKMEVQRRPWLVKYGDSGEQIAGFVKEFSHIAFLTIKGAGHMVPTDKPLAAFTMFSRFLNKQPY
Sequence of recombinant human CatA (rhCatA) (P10619 29-326): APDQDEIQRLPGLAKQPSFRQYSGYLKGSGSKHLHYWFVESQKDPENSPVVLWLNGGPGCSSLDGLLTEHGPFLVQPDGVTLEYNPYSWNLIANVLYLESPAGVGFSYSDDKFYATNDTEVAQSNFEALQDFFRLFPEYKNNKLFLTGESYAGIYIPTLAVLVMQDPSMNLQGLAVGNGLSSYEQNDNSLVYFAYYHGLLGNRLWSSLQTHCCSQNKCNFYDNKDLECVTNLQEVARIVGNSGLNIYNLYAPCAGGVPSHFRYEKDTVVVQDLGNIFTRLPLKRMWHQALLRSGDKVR

| Compound | Activity of rhCatA for prodrug hydrolysis [1] | Activity of rhCES1 for prodrug hydrolysis [2] | Stability in human plasma [3] | Hydrolyzed in human plasma [5] | Prodrug form in plasma after oral administration [6] | CL/F of the administered compound [7, 15] | AUC(0-inf) ([7]; 54.4 μmole/kg) | AUC(0-t) ([7]; 54.4 μmole/kg) | Cmax ([7]; 54.4 μmole/kg) | Vd ([7]; 54.4 μmole/kg) | half-life ([7]; 54.4 μmole/kg) | concentration at 15 min ([7]; 54.4 μmole/kg) | further results |
| --- | --- | --- | --- | --- | --- | --- | --- | --- | --- | --- | --- | --- | --- |
| CC(C)OC(=O)[C@H](C)N[P@](=O)(OC[C@H]1O[C@@](C#N)(c2ccc3c(N)ncnn23)[C@H](O)[C@@H]1O)Oc1ccccc1 [IsoRDV] | 236.7 ± 172.8 pmol/min/μg protein | 7.7 ± 1.4 pmol/min/μg protein | 1561 min | ~15% | barely detected | 0.28 ± 0.03 L⋅h^−1 |  |  |  |  |  |  | logD [4]: 1.1; Oral bioavailability (estimated) [6]: less than 2%; AUC0-∞ of the administered compound in plasma [7, 15]: 4,950.3 ± 628.2 h⋅nM; Vd (apparent distribution volume) [7, 15]: 0.42 ± 0.17 L; t1/2 of the administered compound in plasma [7, 15]: 1.04 ± 0.33 h; AUC0-t of the administered compound in plasma ([7]; IV bolus, 54.4 μmole/kg, Ces1c−/− mice, AUC0-t(8h)): 4,941.6 ± 626.4 h⋅nM |
| O=[N+]([O-])c1ccc(OP(=O)(O)Oc2ccc([N+](=O)[O-])cc2)cc1 [BNPP, Bis-(p-nitrophenyl) phosphate] |  |  |  |  |  |  |  |  |  |  |  |  | Effect of inhibitor on the formation of RDV-TP (BEAS-2B cells): did not significantly alter |
| N#C[C@@]1(c2ccc3c(N)ncnn23)O[C@H](CO)[C@@H](O)[C@H]1O [Nuc] |  |  |  |  |  | 0.052 ± 0.002 L⋅h^−1 | 26.3 µM·h | 25.1 µM·h | 18.1 µM | 0.47 ± 0.29 L | 6.34 ± 4.01 h | 18.1 µM | Reduction after incubation with human plasma [8]: 5%; RDV-TP concentrations in the mouse lung relative to estimated EC50/EC90 [9]: constantly below EC50; RDV-TP levels, fold lower than RDV [10]: at least 40 fold |
| CC(C)C(=O)OC[C@H]1O[C@@](C#N)(c2ccc3c(N)ncnn23)[C@H](OC(=O)C(C)C)[C@@H]1OC(=O)C(C)C [GS-621763] |  |  |  |  | barely detected |  |  |  |  |  |  |  | Prodrug remaining in human intestine homogenate [11]: could barely be detected; Prodrug remaining in human liver homogenate [12]: could barely be detected |
| CCC(CC)COC(=O)[C@H](C)N[P@](=O)(OC[C@H]1O[C@@](C#N)(c2ccc3c(N)ncnn23)[C@H](O)[C@@H]1O)Oc1ccccc1 [RDV, remdesivir] | 1,786.5 ± 179.2 pmol/min/μg protein | 15.5 ± 1.8 pmol/min/μg protein | 69 min | approximately 70% | barely detected | 1.06 ± 0.44 L⋅h^−1 | 1.58 µM·h | 1.57 µM·h | 1.37 µM | 1.91 ± 0.94 L | 1.25 ± 0.39 h | 1.37 µM | CC50 (VeroE6 cells): 101 µM; CC50 (iPSC-AT2): 32.7 µM; Effect on lung virus titers (lung virus titers; 25 mg/kg twice daily): significantly reduced the lung virus titers; Effect on lung virus titers (lung virus titers; 50 mg/kg single dose daily): could not; Half-life in human plasma [3]: 1.15 h; Half-life in human plasma ex vivo [3]: 1.15 h; Plasma half-life in mice [13]: < 5 min; Plasma half-life in Ces1c−/− mice [14]: ~ 25 min; Presence in plasma 4 hours after IV administration [7, 15]: barely detectable; Portion of plasma RDV that disappeared ([7]; within 30 minutes after IV administration): about 90% |
